The test system of data set [1] is Staphylococcus aureus. The data set can be described thus: Antistaphylococcal activity against Staphylococcus aureus Newman after 18 hrs by two fold serial dilution method. The format is functional.
Data set [2] has as its system Staphylococcus aureus. The data set can be described thus: Antistaphylococcal activity against aminoglycosides/tetracycline-resistant Staphylococcus aureus NRS-1 after 18 hrs by two fold serial dilution method. The format is functional. The conditions noted are these: NRS-1, 18 h.
The test system of data set [3] is Staphylococcus aureus. The data set can be described thus: Antistaphylococcal activity against erythromycin-resistant Staphylococcus aureus NRS-70 after 18 hrs by two fold serial dilution method. It is filed as functional. To be noted: NRS-70, 18 h.
The subject of data set [4] is Staphylococcus aureus. The data set can be described thus: Antistaphylococcal activity against oxacillin/tetracycline-resistant Staphylococcus aureus NRS-100 after 18 hrs by two fold serial dilution method. It is filed as functional. The conditions noted are these: NRS-100, 18 h.
The test system of data set [5] is Staphylococcus aureus. Kind of data set: Antistaphylococcal activity against gentamicin-resistant Staphylococcus aureus NRS-108 after 18 hrs by two fold serial dilution method. The format is functional. The conditions noted are these: NRS-108, 18 h.
Data set [6] concerns Staphylococcus aureus. The data set can be described thus: Antistaphylococcal activity against linezolid-resistant Staphylococcus aureus NRS-271 containing phage type E-MRSA after 18 hrs by two fold serial dilution method. The format is functional. The conditions noted are these: NRS-271, 18 h.
Data set [7] deals with Staphylococcus aureus. The data set can be described thus: Potency index, ratio of totarol MIC to test compound MIC for aminoglycosides/tetracycline-resistant Staphylococcus aureus NRS-1. The format is functional.
For data set [8], the system named is Staphylococcus aureus. Kind of data set: Potency index, ratio of totarol MIC to test compound MIC for erythromycin-resistant Staphylococcus aureus NRS-70. The format is functional.
The test system of data set [9] is Staphylococcus aureus. Kind of data set: Potency index, ratio of totarol MIC to test compound MIC for oxacillin/tetracycline-resistant Staphylococcus aureus NRS-100. The format is functional.
The test system of data set [10] is Staphylococcus aureus. Kind of data set: Potency index, ratio of totarol MIC to test compound MIC for linezolid-resistant Staphylococcus aureus NRS-271 containing phage type E-MRSA. The format is functional.
Data set [11] can be described thus: Cytotoxicity against HAF assessed as decrease in cell viability after 24 hrs by MTS assay. It is filed as cell-based. To be noted: Homo sapiens.
Data set [12] can be described thus: Cytotoxicity against HAF assessed as effect on cell morphology at […] ug/ml after 24 hrs by hematoxylin-eosin staining-based contrast microscopic method. To be noted: human.
Data set [13] can be described thus: Cytotoxicity against HAF assessed as effect on cell morphology at 12.5 ug/ml after 24 hrs by hematoxylin-eosin staining-based contrast microscopic method. The conditions noted are these: human.
In data set [14] the test system is Staphylococcus aureus. The data set can be described thus: Potency index, ratio of totarol MIC to test compound MIC for gentamicin-resistant Staphylococcus aureus NRS-108.

As for `CCCCCNc1c(OC)ccc2c(Cc3ccc(C(F)(F)F)cc3)c3[n+](cc12)CCc1cc2c(cc1-3)OCO2.[Br-]`, the MIC in data set [1] was 1.25 µg/mL; in data set [2], 1.56 µg/mL; in data set [3] it was 1.56 µg/mL; in data set [4], 1.56 µg/mL; in data set [5] it was 1.56 µg/mL; in data set [6] it was 1.56 µg/mL. Besides, the Ratio in data set [7], in data set [8], in [9], in data set [10] and in data set [14] was 1 - 4 throughout. Moreover, the IC50 in data set [11] is 11.4 µg/mL. Moreover, the Activity entry is given as “Non-Toxic” in data set [12] and “Toxic” in data set [13].

These data come from ChEMBL document CHEMBL3994623, “The synthesis and antistaphylococcal activity of 9, 13-disubstituted berberine derivatives” (Eur J Med Chem, 2017).
